Where a name gives a salt, the structure may show the parent alone.
Experiments:
human LTA4 hydrolase = molecular target: T1, human LTA4 hydrolase (Homo sapiens, UniProt P09960); assay: In vitro assay testing inhibitory activity against purified recombinant human LTA4 hydrolase (LTB4 formed, LC-MS/MS); type: biochemical; conditions: recombinant human LTA4 hydrolase 200 nM, LTA4 2 μM; read-out: AvgIC50;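 also: 200 nM enzyme preincubated 10 min at room temperature with serial inhibitor dilutions in pH 8.0 Tris buffer with BSA and 10% DMSO, then 2 µM LTA4 added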
T1 construct: A human LTA4 hydrolase full-length cDNA clone (NM 000895) was purchased; His tag (6xHis of vector pDEST17); made in house; host or cells: Escherichia coli BL21-AI
T1 sequence (P09960 1-611): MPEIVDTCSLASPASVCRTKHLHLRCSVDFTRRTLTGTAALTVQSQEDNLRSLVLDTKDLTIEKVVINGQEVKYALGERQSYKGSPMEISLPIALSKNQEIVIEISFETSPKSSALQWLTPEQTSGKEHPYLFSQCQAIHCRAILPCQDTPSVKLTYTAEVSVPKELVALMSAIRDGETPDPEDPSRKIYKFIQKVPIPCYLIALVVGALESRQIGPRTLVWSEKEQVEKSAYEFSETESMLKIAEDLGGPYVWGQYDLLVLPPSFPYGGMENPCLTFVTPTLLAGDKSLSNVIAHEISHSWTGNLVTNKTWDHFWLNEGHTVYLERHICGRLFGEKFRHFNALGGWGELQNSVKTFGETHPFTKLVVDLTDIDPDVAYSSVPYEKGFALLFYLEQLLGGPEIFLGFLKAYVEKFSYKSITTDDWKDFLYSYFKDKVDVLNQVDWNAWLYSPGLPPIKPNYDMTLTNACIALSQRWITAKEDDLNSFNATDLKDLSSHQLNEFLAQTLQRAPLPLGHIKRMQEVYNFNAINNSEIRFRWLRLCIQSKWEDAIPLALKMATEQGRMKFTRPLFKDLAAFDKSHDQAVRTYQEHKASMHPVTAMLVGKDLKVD

human whole blood = assay: Ex vivo assay testing inhibitory activity in human whole blood after stimulation with calcium ionophore (LTB4 ELISA); type: cell-based; conditions: Ionomycin 20 μM, read-out: hWBIC50;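 also: heparinized human blood preincubated 15 min at 37 °C with compound, then ionomycin-stimulated for 30 min, LTB4 in plasma supernatant quantified by ELISA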
Method: (2) Ex vivo assay testing inhibitory activity in human whole blood after stimulation with calcium ionophor.
Human blood was collected in heparin-containing Vacutainer tubes. […] Then 4 μl of a series of compound dilutions (in DMSO) were added, followed by a 15 min incubation at 37° C. with gentle shaking. After that, blood samples were stimulated by adding Ionomycin (Calbiochem) to a final concentration of 20 μM. After another incubation at 37° C. for 30 min, samples were centrifuged for 5 min at 1800 g and 4° C. Supernatants were taken and LTB4 concentrations were determined using a commercially available enzyme-linked immunosobentassay (R&D Systems, Minneapolis, Minn.) according to the manufacturer's instructions.

[1] = test system: ionophore-induced LTB4 production; conditions: oral administration; cited from earlier work
[2] = test system: ionophore-induced LTB4 production; conditions: oral administration; cited from earlier work; remark: listed apart in the source
primate model = conditions: eight weeks of treatment; cited from earlier work

Clc1ccc(Cc2ccc(OC[C@@H]3CCCN3)cc2)cc1 [Example 64, (S)-2-[4-(4-Chloro-benzyl)-phenoxymethyl]-pyrrolidine hydrochloride]
IC50 (human LTA4 hydrolase): < 5 µM | IC50 (human whole blood): < 5 µM

O=C(O)CCC[N+]1([O-])CCC[C@H]1COc1ccc(Oc2ccc(Cl)cc2)cc1 (stereo partly drawn) [Example 70, 4-{(S)-2-[4-(4-Chloro-phenoxy)-phenoxymethyl]-1-hydroxy-pyrrolidin-1-yl}-butyric acid]
IC50 (human LTA4 hydrolase): < 5 µM | IC50 (human whole blood): 5 to 20 µM

c1cncc(-c2ccc(Oc3ccc(OC[C@H]4CCCN4)cc3)cc2)c1 [Example 87, 3-{4-[4-((R)-1-Pyrrolidin-2-ylmethoxy)-phenoxy]-phenyl}-pyridine hydrochloride salt]
IC50 (human LTA4 hydrolase): < 5 µM | IC50 (human whole blood): < 5 µM

O=C(O)CCCN1CCC[C@@H]1COc1ccc(Oc2ccc(-c3cnco3)cc2)cc1 [Example 88, 4-{(R)-2-[4-(4-Oxazol-5-yl-phenoxy)-phenoxymethyl]-pyrrolidin-1-yl}-butyric acid]
IC50 (human LTA4 hydrolase): < 5 µM | IC50 (human whole blood): < 5 µM

c1ccc(COc2ccc(OC[C@H]3CCCN3)cc2)cc1 [Example 90, (R)-2-(4-Benzyloxy-phenoxymethyl)-pyrrolidine hydrogen chloride salt]
IC50 (human LTA4 hydrolase): < 5 µM | IC50 (human whole blood): < 5 µM

c1ccc2sc(Oc3ccc(OC[C@H]4CCCN4)cc3)nc2c1 [Example 100, (R)-2-[4-(Benzothiazol-2-yloxy)-phenoxymethyl]-pyrrolidine-Hydrogen chloride salt]
IC50 (human LTA4 hydrolase): < 5 µM | IC50 (human whole blood): < 5 µM

c1ccc2sc(Cc3ccc(OC[C@H]4CCCN4)cc3)nc2c1 [Example 104, 2-[4-((R)-1-Pyrrolidin-2-ylmethoxy)-benzyl]-benzothiazole-hydrogen chloride salt]
IC50 (human LTA4 hydrolase): < 5 µM | IC50 (human whole blood): < 5 µM

Brc1ccc(Cc2ccc(OC[C@H]3CCCN3)cc2)cc1 [Example 105, (R)-2-[4-(4-Bromo-benzyl)-phenoxymethyl]-pyrrolidine hydrogen chloride salt]
IC50 (human LTA4 hydrolase): < 5 µM | IC50 (human whole blood): < 5 µM

Ic1ccc(Cc2ccc(OC[C@H]3CCCN3)cc2)cc1 [Example 106, (R)-2-[4-(4-Iodo-benzyl)-phenoxymethyl]-pyrrolidine Hydrogen chloride salt]
IC50 (human LTA4 hydrolase): < 5 µM | IC50 (human whole blood): < 5 µM

c1csc(-c2ccc(Cc3ccc(OC[C@H]4CCCN4)cc3)cc2)c1 [Example 107, (R)-2-[4-(2-thiophen-benzyl)-phenoxymethyl]-pyrrolidine hydrogen chloride salt]
IC50 (human LTA4 hydrolase): < 5 µM | IC50 (human whole blood): < 5 µM

c1cc(-c2ccc(Cc3ccc(OC[C@H]4CCCN4)cc3)cc2)co1 [Example 108, (R)-2-[4-(3-Furan-benzyl)-phenoxymethyl]-pyrrolidine hydrogen chloride salt]
IC50 (human LTA4 hydrolase): < 5 µM | IC50 (human whole blood): < 5 µM

c1coc(-c2ccc(Cc3ccc(OC[C@H]4CCCN4)cc3)cc2)c1 [Example 109, (R)-2-[4-(2-Furan-benzyl)-phenoxymethyl]-pyrrolidine hydrogen chloride salt]
IC50 (human LTA4 hydrolase): < 5 µM | IC50 (human whole blood): < 5 µM

Cc1ccc(-c2ccc(Cc3ccc(OC[C@H]4CCCN4)cc3)cc2)s1 [Example 110, (R)-2-{4-[4-(5-methyl-thiophen-2-yl)-benzyl]-phenoxymethyl}-pyrrolidine hydrogen chloroide salt]
IC50 (human LTA4 hydrolase): < 5 µM | IC50 (human whole blood): 5 to 20 µM

Clc1ccc(-c2ccc(Cc3ccc(OC[C@H]4CCCN4)cc3)cc2)s1 [Example 111, (R)-2-{4-[4-(5-chloro-thiophen-2-yl)-benzyl]-phenoxymethyl}-pyrrolidine hydrogen chloroide salt]
IC50 (human LTA4 hydrolase): < 5 µM | IC50 (human whole blood): < 5 µM

O=C(O)CCCN1CCC[C@@H]1COc1ccc(Cc2ccc(-c3ccsc3)cc2)cc1 [Example 112, 4-{(R)-2-[4-(4-Thiophen-3-yl-benzyl)-phenoxymethyl]-pyrrolidin-1-yl}-butyric acid hydrogen chloride salt]
IC50 (human LTA4 hydrolase): < 5 µM | IC50 (human whole blood): < 5 µM

O=C(O)CCCN1CCC[C@@H]1COc1ccc(Cc2ccc(-c3cccs3)cc2)cc1 [Example 113, 4-{(R)-2-[4-(4-Thiophen-2-yl-benzyl)-phenoxymethyl]-pyrrolidin-1-yl}-butyric acid hydrogen chloride salt]
IC50 (human LTA4 hydrolase): < 5 µM | IC50 (human whole blood): < 5 µM

c1cc(-c2ccc(Oc3ccc(OC[C@H]4CCCN4)cc3)cc2)cs1 [Example 130, (R)-2-[4-(4-Thiophen-3-yl-phenoxy)-phenoxymethyl]-pyrrolidine-1-hydrogen chloride salt]
IC50 (human LTA4 hydrolase): 5 to 20 µM | IC50 (human whole blood): < 5 µM

c1cnn(-c2ccc(Oc3ccc(OC[C@H]4CCCN4)cc3)cc2)c1 [Example 133, 1-{4-[4-((R)-1-Pyrrolidin-2-ylmethoxy)-phenoxy]-phenyl}-1H-pyrazole, hydrogen chloride salt]
IC50 (human LTA4 hydrolase): 5 to 20 µM | IC50 (human whole blood): < 5 µM

O=C(O)CCCN1CCC[C@@H]1COc1ccc(Oc2ccc(-n3cccn3)cc2)cc1 [Example 134, 4-{(R)-2-[4-(4-Pyrazol-1-yl-phenoxy)-phenoxymethyl]-pyrrolidin-1-yl}-butyric acid]
IC50 (human LTA4 hydrolase): 5 to 20 µM | IC50 (human whole blood): < 5 µM

c1ccc(CCc2ccc(OC[C@H]3CCCN3)cc2)cc1 [Example 135, (R)-2-(4-Phenethyl-phenoxymethyl)-pyrrolidine]
IC50 (human LTA4 hydrolase): 5 to 20 µM | IC50 (human whole blood): 5 to 20 µM

c1csc(-c2ccc(Oc3ccc(OC[C@H]4CCCN4)cc3)cc2)n1 [Example 146, 2-{4-[4-((R)-1-Pyrrolidin-2-ylmethoxy)-phenoxy]-phenyl}-thiazole hydrochloride salt]
IC50 (human LTA4 hydrolase): < 5 µM | IC50 (human whole blood): < 5 µM

c1ccc(-c2ccc(Cc3ccc(OC[C@H]4CCCN4)cc3)s2)cc1 [Example 159, (R)-2-[4-(5-Phenyl-thiophen-2-ylmethyl)-phenoxymethyl]-pyrrolidine hydrochloride salt]
IC50 (human LTA4 hydrolase): < 5 µM | IC50 (human whole blood): < 5 µM

O=C(O)CCCN1CCC[C@H]1COc1ccc(Cc2ccc(-c3ccsc3)cc2)cc1 [Example 169, 4-{(S)-2-[4-(4-Thiophen-3-yl-benzyl)-phenoxymethyl]-pyrrolidin-1-yl}-butyric acid sodium salt]
IC50 (human LTA4 hydrolase): < 5 µM | IC50 (human whole blood): < 5 µM

CN(CCCOc1ccc(Cc2ccccc2)cc1)CCC(=O)O.Cl [SC57461]
inhibition of ionophore-induced LTB4 production in rat peritoneum in vivo [1]: inhibition of ionophore-induced LTB4 production | inhibition of ionophore-induced LTB4 production in mouse blood ex vivo [2]: inhibition of ionophore-induced LTB4 production | colitis symptoms in a primate model (primate model): significantly improved colitis symptoms

Source: patent publication US20070078263A1, “BIARYL SUBSTITUTED HETEROCYCLE INHIBITORS OF LTA4H FOR TREATING INFLAMMATION” (deCODE Chemistry, Inc., priority 2005, published 2007)
